Measured values taken from publication PMC2528936, “Snake Cathelicidin from Bungarus fasciatus Is a Potent Peptide Antibiotics” (PLoS ONE, 2008).
Like-named read-outs stand apart in the source and are kept apart here. Where no end group is shown, it is not given here.

How the values were obtained:
S. aureus ATCC25923 = experiment: MIC determination; assay type: cell-based, Staphylococcus aureus; conditions: liquid LB broth, no visible growth; mean of three independent experiments in duplicates; ND = no detectable activity
[1] = tested on: Escherichia coliATCC25922; experiment: microbe, parasite or virus in culture; conditions: standard strain; liquid LB broth, no visible growth; mean of three independent experiments in duplicates; ND = no detectable activity
Procedure: (§1) Antimicrobial activities of cathelicidin-BF and cathelicidin-BF15 ([…]) were tested according to our previous methods [39]–[42]. […] The details were provided in the Materials and Methods S1.
(§2) Standard and clinically isolated microorganism strains were used for antimicrobial assays. Bacteria were first grown in LB (Luria-Bertani) broth to an OD600 nm of 0.8. A 10 µl aliquot of the bacteria was then taken and added to 8 ml of fresh LB broth with 0.7% agar and poured over a 90 mm Petri dish containing 25 ml of 1.5% agar in LB broth. After the top agar hardened, a 20 µl aliquot of the test sample filtered on a 0.22 µm Millipore filter was dropped onto the surface of the top agar and completely dried before being incubated overnight at 37 °C. If the sample examined had antimicrobial activity, a clear zone would be formed on the surface of the top agar representing inhibition of bacterial growth. Minimal inhibitory concentration (MIC) was determined in liquid LB medium by incubating the bacteria in LB broth with variable amounts of the sample tested. The MIC at which no visible growth occurred was recorded. In the assays of anti-fungi activity, for strains of Aspergillus terreus, A. niculans, and Chaetomium globosum, the fungal spore concentration was first counted under a microscope. The fungi with an initial concentration of 10^5 spores/ml were cultured with variable amounts of the sample tested in yeast extract-peptone-dextrose broth.

Bacillus cereus = experiment: microbe, parasite or virus in culture; conditions: liquid LB broth, no visible growth; mean of three independent experiments in duplicates; ND = no detectable activity
Procedure: as §1, §2

[2] = tested on: Acinetobacter calcoaceticus; experiment: microbe, parasite or virus in culture; conditions: liquid LB broth, no visible growth; mean of three independent experiments in duplicates; ND = no detectable activity
Procedure: as §1, §2

[3] = tested on: Staphylococcus aureus ATCC2592; experiment: microbe, parasite or virus in culture; conditions: standard strain; liquid LB broth, no visible growth; mean of three independent experiments in duplicates; ND = no detectable activity
Procedure: as §1, §2

[4] = tested on: Pseudomonas aeruginosa ATCC27853; experiment: microbe, parasite or virus in culture; conditions: standard strain; liquid LB broth, no visible growth; mean of three independent experiments in duplicates; ND = no detectable activity
Procedure: as §1, §2

Bacillus pumilus = experiment: microbe, parasite or virus in culture; conditions: liquid LB broth, no visible growth; mean of three independent experiments in duplicates; ND = no detectable activity
Procedure: as §1, §2

Bacillus subtilis = experiment: microbe, parasite or virus in culture; conditions: liquid LB broth, no visible growth; mean of three independent experiments in duplicates; ND = no detectable activity
Procedure: as §1, §2

[5] = tested on: human liver tumor cell (HepG2); conditions: up to 400 µg/ml, data not shown
Procedure: (§3) Cytotoxicity and serum stability were measured according the methods described by Mygind et al. The details were provided in the Materials and Methods S1.
(§4) Hemolysis assays were undertaken using human red blood cells in liquid medium as our previous reoprts. Serial dilutions of the peptide were used, and after incubation at 37 °C for 30 min, the cells were centrifuged and the absorbance in the supernatant was measured at 540 nm. Maximum hemolysis was determined by adding 1% Triton X-100 to a sample of cells. Cytotoxicity was measured according the methods described by Mygind et al, using mouse macrophage (RAW264.7) and tumor cell (HepG2). Serum stability was checked by incubating 100 µg/ml cathelicidin-BF with 90% fresh normal human serum at 37 °C for 0, 1, 2, 3, 6, and 24 hours. Residual antimicrobial activities were measured by performing radial diffusion assays with E. coli 08A866 as described by Mygind et al.

[6] = tested on: mouse macrophage (RAW264.7); conditions: up to 400 µg/ml, data not shown
Procedure: as §3, §4

[7] = tested on: E. coli 08032813 (IS, DR); conditions: clinically isolated strain, drug resistance for ampicillin and benzylpenicillin; liquid LB broth; mean of three independent experiments in duplicates; ND = no detectable activity
Procedure: as §1, §2

Chaetomium globosum = conditions: saprophytic fungus; 10^5 spores/ml, yeast extract-peptone-dextrose broth; mean of three independent experiments in duplicates; ND = no detectable activity
Procedure: as §1, §2

P. aeruginosa (IS, DR) = conditions: clinically isolated strain, drug resistance for ampicillin and benzylpenicillin; liquid LB broth; mean of three independent experiments in duplicates; ND = no detectable activity
Procedure: as §1, §2

[8] = tested on: P.aeruginosa 08031205(IS, DR); conditions: clinically isolated strain, drug resistance for ampicillin and benzylpenicillin; liquid LB broth; mean of three independent experiments in duplicates; ND = no detectable activity
Procedure: as §1, §2

[9] = tested on: P.aeruginosa 08031014(IS, DR); conditions: clinically isolated strain, drug resistance for ampicillin and benzylpenicillin; liquid LB broth; mean of three independent experiments in duplicates; ND = no detectable activity
Procedure: as §1, §2

[10] = tested on: E. coli 08040722 (IS, DR); conditions: clinically isolated strain, drug resistance for ampicillin and benzylpenicillin; liquid LB broth; mean of three independent experiments in duplicates; ND = no detectable activity
Procedure: as §1, §2

[11] = tested on: Sacharibacillus kuerlensis; conditions: liquid LB broth, no visible growth; mean of three independent experiments in duplicates; ND = no detectable activity
Procedure: as §1, §2

[12] = tested on: S. aureus 08A865 (IS, DR); conditions: clinically isolated strain, drug resistance for ampicillin and benzylpenicillin; liquid LB broth; mean of three independent experiments in duplicates; ND = no detectable activity
Procedure: as §1, §2

[13] = tested on: K. pneumoniae 08031012 (IS, DR); conditions: clinically isolated strain, drug resistance for ampicillin and benzylpenicillin; liquid LB broth; mean of three independent experiments in duplicates; ND = no detectable activity
Procedure: as §1, §2

E. coli 08A852 (IS, DR) = conditions: clinically isolated strain, drug resistance for ampicillin and benzylpenicillin; liquid LB broth; mean of three independent experiments in duplicates; ND = no detectable activity
Procedure: as §1, §2

[14] = tested on: K. pneumoniae 08040202 (IS, DR); conditions: clinically isolated strain, drug resistance for ampicillin and benzylpenicillin; liquid LB broth; mean of three independent experiments in duplicates; ND = no detectable activity
Procedure: as §1, §2

[15] = tested on: E. coli 08040726 (IS, DR); conditions: clinically isolated strain, drug resistance for ampicillin and benzylpenicillin; liquid LB broth; mean of three independent experiments in duplicates; ND = no detectable activity
Procedure: as §1, §2

Serratia marcescens SA = conditions: liquid LB broth, no visible growth; mean of three independent experiments in duplicates; ND = no detectable activity
Procedure: as §1, §2

[16] = tested on: S. aureus 08032706 (IS, DR); conditions: clinically isolated strain, drug resistance for ampicillin and benzylpenicillin; liquid LB broth; mean of three independent experiments in duplicates; ND = no detectable activity
Procedure: as §1, §2

[17] = tested on: Enterococcus faecium (IS, DR); conditions: clinically isolated strain, drug resistance for ampicillin and benzylpenicillin; liquid LB broth; mean of three independent experiments in duplicates; ND = no detectable activity
Procedure: as §1, §2

[18] = tested on: K. pneumoniae 08040724 (IS, DR); conditions: clinically isolated strain, drug resistance for ampicillin and benzylpenicillin; liquid LB broth; mean of three independent experiments in duplicates; ND = no detectable activity
Procedure: as §1, §2

[19] = tested on: S. aureus 08032810 (IS, DR); conditions: clinically isolated strain, drug resistance for ampicillin and benzylpenicillin; liquid LB broth; mean of three independent experiments in duplicates; ND = no detectable activity
Procedure: as §1, §2

Serratia marcescens MA = conditions: liquid LB broth, no visible growth; mean of three independent experiments in duplicates; ND = no detectable activity
Procedure: as §1, §2

Pseudomonas luteola = conditions: liquid LB broth, no visible growth; mean of three independent experiments in duplicates; ND = no detectable activity
Procedure: as §1, §2

[20] = tested on: Sphingobacterium siyangense; conditions: liquid LB broth, no visible growth; mean of three independent experiments in duplicates; ND = no detectable activity
Procedure: as §1, §2

E. coli 08A866(IS, DR) = conditions: clinically isolated strain, drug resistance for ampicillin and benzylpenicillin; liquid LB broth; mean of three independent experiments in duplicates; ND = no detectable activity
Procedure: as §1, §2

[21] = tested on: Klebsiella pneumoniae (IS, DR); conditions: clinically isolated strain, drug resistance for ampicillin and benzylpenicillin; liquid LB broth; mean of three independent experiments in duplicates; ND = no detectable activity
Procedure: as §1, §2

[22] = tested on: S. aureus 08031013 (IS, DR); conditions: clinically isolated strain, drug resistance for ampicillin and benzylpenicillin; liquid LB broth; mean of three independent experiments in duplicates; ND = no detectable activity
Procedure: as §1, §2

E. coli = conditions: for most of E. coli (standard and clinically isolated strains)
Procedure: as §1, §2

[23] = tested on: S. aureus 08A875 (IS, DR); conditions: clinically isolated strain, drug resistance for ampicillin and benzylpenicillin; liquid LB broth; mean of three independent experiments in duplicates; ND = no detectable activity
Procedure: as §1, §2

[24] = tested on: S. aureus 08031002 (IS, DR); conditions: clinically isolated strain, drug resistance for ampicillin and benzylpenicillin; liquid LB broth; mean of three independent experiments in duplicates; ND = no detectable activity
Procedure: as §1, §2

[25] = tested on: Aspergillus terreus GIM3.34; conditions: saprophytic fungus; 10^5 spores/ml, yeast extract-peptone-dextrose broth; mean of three independent experiments in duplicates; ND = no detectable activity
Procedure: as §1, §2

Aspergillus niculans = conditions: saprophytic fungus; 10^5 spores/ml, yeast extract-peptone-dextrose broth; mean of three independent experiments in duplicates; ND = no detectable activity
Procedure: as §1, §2

[26] = tested on: E. coli 08031017 (IS, DR); conditions: clinically isolated strain, drug resistance for ampicillin and benzylpenicillin; liquid LB broth; mean of three independent experiments in duplicates; ND = no detectable activity
Procedure: as §1, §2

[27] = tested on: S. aureus 08032712 (IS, DR); conditions: clinically isolated strain, drug resistance for ampicillin and benzylpenicillin; liquid LB broth; mean of three independent experiments in duplicates; ND = no detectable activity
Procedure: as §1, §2

[28] = Serum stability, residual antimicrobial activity; assay type: in vitro ADME; conditions: 100 µg/ml peptide, 90% fresh normal human serum, 37°C, 0-24 hours; residual activity against E. coli 08A866 by radial diffusion assay
Procedure: For cathelicidin-BF, antimicrobial activities against E. coli 08A866 could not be detected after 3 h-incubation, while cathelicidin-BF15 could keep its antimicrobial activity up to 10 h in 90% fresh normal human serum.

[29] = tested on: Salmonella typhi (IS, DR); experiment: MIC determination; assay type: cell-based; conditions: clinically isolated strain, drug resistance for ampicillin and benzylpenicillin; liquid LB broth; mean of three independent experiments in duplicates; ND = no detectable activity

KFFRKLKKSVKKRAKEFFKKPRVIGVSIPF [cathelicidin-BF]
MIC (S. aureus ATCC25923): >400 µg/mL
MIC [1]: 2.3 µg/mL
MIC (Bacillus cereus): 1.2 µg/mL
MIC [2]: 2.3 µg/mL
MIC [3]: 4.7 µg/mL
MIC [4]: 1.2 µg/mL
MIC (Bacillus pumilus): 9.4 µg/mL
MIC (Bacillus subtilis): 9.4 µg/mL
cytotoxicity [5]: neither cytotoxic
cytotoxicity ([5]; listed as Cathelicidin-BF): No hemolytic and cytotoxic activity
cytotoxicity [6]: neither cytotoxic
cytotoxicity ([6]; listed as Cathelicidin-BF): No hemolytic and cytotoxic activity
MIC [7]: 2.3 µg/mL
MIC (Chaetomium globosum): 37.5 µg/mL
MIC (P. aeruginosa (IS, DR)): 2.3 µg/mL
MIC [8]: 9.4 µg/mL
MIC [9]: 18.7 µg/mL
MIC [10]: 0.6 µg/mL
MIC [11]: 4.7 µg/mL
MIC [12]: >400 µg/mL
MIC [13]: 9.4 µg/mL
MIC (E. coli 08A852 (IS, DR)): 1.2 µg/mL
MIC [14]: 0.6 µg/mL
MIC [15]: 0.6 µg/mL
MIC (Serratia marcescens SA): >400 µg/mL
MIC [16]: >100 µg/mL
MIC [17]: 150 µg/mL
MIC [18]: 0.3 µg/mL
MIC [19]: >100 µg/mL
MIC (Serratia marcescens MA): >400 µg/mL
MIC (Pseudomonas luteola): 1.2 µg/mL
MIC [20]: 9.4 µg/mL
MIC (E. coli 08A866(IS, DR)): 0.6 µg/mL
MIC [21]: 4.7 µg/mL
MIC [22]: >100 µg/mL
MIC (E. coli): lower than 2.3 µg/ml
MIC [23]: 75 µg/mL
MIC [24]: >100 µg/mL
MIC [25]: 18.7 µg/mL
MIC (Aspergillus niculans): 18.7 µg/mL
MIC [26]: 2.3 µg/mL
MIC [27]: >100 µg/mL
incubation time after which antimicrobial activities could not be detected [28]: 3 h
MIC [29]: 1.2 µg/mL
